Results published in patent US9814789B2, “Radiopharmaceutical products for diagnosis and therapy of adrenal carcinoma” (JULIUS-MAXIMILIANS-UNIVERSITÄT WÜRZBURG, priority 2012, dated 2017).

molecular target: T1, CYP11B2 (Homo sapiens, UniProt P19099); test: not given; conditions: in contrast to IMTO; cited from earlier work
T1 sequence (P19099 25-503): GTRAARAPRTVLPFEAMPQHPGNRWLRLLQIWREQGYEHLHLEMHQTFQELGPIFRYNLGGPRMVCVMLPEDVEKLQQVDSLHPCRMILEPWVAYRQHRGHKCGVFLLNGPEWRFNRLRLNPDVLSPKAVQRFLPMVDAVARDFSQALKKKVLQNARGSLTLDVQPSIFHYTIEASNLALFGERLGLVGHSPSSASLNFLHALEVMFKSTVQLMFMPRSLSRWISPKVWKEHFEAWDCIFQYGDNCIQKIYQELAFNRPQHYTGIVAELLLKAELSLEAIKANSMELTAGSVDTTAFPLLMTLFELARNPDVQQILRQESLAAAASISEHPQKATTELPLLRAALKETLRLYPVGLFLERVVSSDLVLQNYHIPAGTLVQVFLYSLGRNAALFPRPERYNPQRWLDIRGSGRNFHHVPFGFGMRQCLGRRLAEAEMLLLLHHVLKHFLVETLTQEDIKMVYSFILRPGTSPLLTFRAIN

| SMILES | affinity to CYP11B2 |
| --- | --- |
| C[C@H](c1ccc(I)cc1)n1cncc1C(=O)O [iodometomidate acid, (R)-1-[1-(4-Iodophenyl)ethyl]-1H-imidazole-5-carboxylic acid] | little or no affinity |

molecular target: T2, human cytochrome P450 family 11B1 (Cyp11B1), 11β-hydroxylase (Homo sapiens, UniProt P15538); test: Cyp11B1 (11β-hydroxylase) inhibition in stably transfected Y1-Cyp11B1 cells, substrate 11-deoxycortisol (RSS); type: cell-based; conditions: not given
T2 construct: the full-length cDNAs for the proteins were subcloned into the multicloning site of pcDNA3.1 (zeo); expressed in transfected cells
T2 sequence (P15538 25-503): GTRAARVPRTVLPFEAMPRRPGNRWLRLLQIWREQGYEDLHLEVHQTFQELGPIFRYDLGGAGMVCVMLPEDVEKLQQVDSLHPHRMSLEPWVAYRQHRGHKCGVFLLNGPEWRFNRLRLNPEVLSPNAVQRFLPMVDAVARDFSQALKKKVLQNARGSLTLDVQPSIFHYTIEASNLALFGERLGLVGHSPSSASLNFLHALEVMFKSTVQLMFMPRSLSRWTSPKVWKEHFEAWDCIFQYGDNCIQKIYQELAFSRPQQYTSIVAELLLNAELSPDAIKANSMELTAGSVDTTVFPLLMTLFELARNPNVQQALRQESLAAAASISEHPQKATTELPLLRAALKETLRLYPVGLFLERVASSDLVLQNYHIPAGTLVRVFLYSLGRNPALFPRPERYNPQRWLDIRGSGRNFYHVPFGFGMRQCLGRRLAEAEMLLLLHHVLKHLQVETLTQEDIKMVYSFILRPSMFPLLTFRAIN
Description: (§1) Plasmid constructs and transfection: To induce expression of human cytochrome P450 family 11B1 (Cyp11B1) and Cyp11B2 enzymes in Y1 cells, the full-length cDNAs for the proteins were subcloned into the multicloning site of pcDNA3.1 (zeo) (Invitrogen, Eggenstein, Germany). The cDNA fragments were isolated by PCR and digested by EcoRI. The individual fragments were ligated into the linearized vectors digested by EcoRI. Human Cyp11B1 and Cyp11B2 enzymes were expressed in Y1 cells using liposome/lipid-mediated DNA transfection. Purified plasmid DNA was mixed with Lipofectamine (Invitrogen) transfection reagents according to the manufacturer's protocol. To generate a stable Y1-Cyp11B1 and Y1-Cyp11B2 cell line, Y1 cells were transfected with the pcDNA3.1 (zeo)-Cyp11B1 and pcDNA3.1 (zeo)-Cyp11B2 vector, respectively.
(§2) Transfected cells were selected with 1000 μg/ml zeocin (Invitrogen). To screen colonies, Western blotting and real-time PCR were used to determine the level of Cyp11B1 and Cyp11B2 expression. Colonies with the highest Cyp11B expression were further tested for their ability to synthesize cortisol or aldosterone from deoxycortisol (RSS) and 11-deoxycorticosterone (DOC), respectively. Experimental protocols were standardized regarding substrate concentrations and incubation periods.
In vitro evaluation of specificity: To evaluate Cyp11B1 and Cyp11B2 inhibition by the inventive compounds, Y1-Cyp11B1 and Y1-Cyp11B2 cells were subcultured on six-well plates (0.5×10^6 cells per well) in 2 ml culture medium.
(§3) The enzyme reaction was started after 24 hours by the addition of 1 ml culture medium containing either 11-deoxycortisol (RSS) or 11-deoxycorticosterone (DOC) as substrate and the corresponding inhibitor. RSS and DOC were dissolved in ethanol to a final test concentration of 1 μM. For determination of IC50 values, the inhibitors were added to the culture medium at concentrations between 0.6 nM and 60 μM and incubated for 48 h. Y1-Cyp11B1 and Y1-Cyp11B2 cells, which were treated in the same way but without inhibitors, served as controls. As further controls, untransfected Y1 cells were also incubated with RSS and DOC, respectively. Both RSS and DOC were obtained from Sigma (Deisenhofen, Germany).

| SMILES | IC50 |
| --- | --- |
| COC(=O)c1cncn1[C@H](C)c1ccc(I)cc1 [iodometomidate (IMTO), 4-Iodometomidate, reference compound] | 2.6 ± 1.1 nM |
| CCCN(CC)C(=O)c1cncn1[C@H](C)c1ccc(I)cc1 [2n] | 1320 nM |
| CCCN(C)C(=O)c1cncn1[C@H](C)c1ccc(I)cc1 [2l] | 74.7 nM |
| CCN(CC)C(=O)c1cncn1[C@H](C)c1ccc(I)cc1 [2b] | 36.6 nM |
| CCN(C)C(=O)c1cncn1[C@H](C)c1ccc(I)cc1 [2a, (R)-1-[1-(4-Iodophenyl)ethyl]-1H-imidazole-5-carboxylic acid ethylmethylamide] | 3.9 ± 0.6 nM |
| C[C@H](c1ccc(I)cc1)n1cncc1C(N)=O [2j] | 329 ± 310 nM |
| C[C@H](c1ccc(I)cc1)n1cncc1C(=O)NCCO [2k] | 336 ± 398 nM |
| CC(C)N(C)C(=O)c1cncn1[C@H](C)c1ccc(I)cc1 [2m] | 78.2 nM |
| C[C@H](c1ccc(I)cc1)n1cncc1C(=O)N(C)C [2i] | > 1000 nM |
| C[C@H](c1ccc(I)cc1)n1cncc1C(=O)N1CCC1 [2e, (R)-1-[1-(4-Iodophenyl)ethyl]-1H-imidazole-5-carboxylic acid azetidinylamide] | 3.16 ± 0.14 nM |

same assay, conditions: Y1-Cyp11B1 cells, 1 μM RSS, 48 h incubation; read-out: IC50 11β-hydroxylase

| SMILES | IC50 |
| --- | --- |
| C[C@H](c1ccc(I)cc1)n1cncc1C(=O)N1CCCCC1 [2g] | 11.7 nM |
| Cc1nnc(-c2cncn2[C@H](C)c2ccc(I)cc2)o1 [6a] | 10.6 ± 9.2 nM |
| C[C@H](c1ccc(I)cc1)n1cncc1C(=O)N1CCOCC1 [2h] | 805 nM |

molecular target: T3, Cyp11B1 (Homo sapiens, UniProt P15538); test: not given; conditions: in contrast to IMTO; cited from earlier work
T3 sequence (P15538 25-503): T2 sequence (P15538 25-503)

| SMILES | affinity to Cyp11B1 |
| --- | --- |
| C[C@H](c1ccc(I)cc1)n1cncc1C(=O)O [iodometomidate acid, (R)-1-[1-(4-Iodophenyl)ethyl]-1H-imidazole-5-carboxylic acid] | little or no affinity |

system: adrenal gland and other organs; test: Biodistribution in mice; type: in vivo; conditions: male CD-1 mice, i.v. 37 kBq, 15 min to 4 h
Procedure: The biodistribution of IMTO, (R)-1-[1-(4-iodophenyl)ethyl]-1H-imidazole-5-carboxylic acid ethyl-methyl amide (compound 2a) and (R)-1-[1-(4-iodophenyl)ethyl]-1H-imidazole-5-carboxylic acid azetidinylamide (compound 2e) has been assessed in mice as follows. Male CD-1 mice were injected iv with 1 μCi (37 kBq) (R)-1-[1-(4-[^125I]iodophenyl)ethyl]-1H-imidazole-5-carboxylic acid ethyl-methyl amide. At predefined time points (15 min, 30 min, 2 h, and 4 h), mice were killed (n 6 per time point). Blood was collected, and heart, lung, liver, intestine, stomach, spleen, kidneys, adrenals, testes, brain and other organs were excised and weighed. Radioactivity was measured using a gamma-counter.

| SMILES | biodistribution: organ of predominant uptake |
| --- | --- |
| CCN(C)C(=O)c1cncn1[C@H](C)c1ccc(I)cc1 [2a, (R)-1-[1-(4-Iodophenyl)ethyl]-1H-imidazole-5-carboxylic acid ethylmethylamide] | predominately in adrenal gland |
| C[C@H](c1ccc(I)cc1)n1cncc1C(=O)N1CCC1 [2e, (R)-1-[1-(4-Iodophenyl)ethyl]-1H-imidazole-5-carboxylic acid azetidinylamide] | predominately in adrenal gland |

system: adrenocortical carcinoma; test: not given; conditions: advanced disease, retrospective analyses; cited from earlier work

| SMILES | overall response rate |
| --- | --- |
| Clc1ccc(C(c2ccccc2Cl)C(Cl)Cl)cc1 (centres unmarked) [mitotane] | 26% |

molecular target: T4, human Cyp11B2, aldosterone synthase (Homo sapiens, UniProt P19099); test: Cyp11B2 (aldosterone synthase) inhibition in stably transfected Y1-Cyp11B2 cells, substrate 11-deoxycorticosterone (DOC); type: cell-based; conditions: not given
T4 construct: the full-length cDNAs for the proteins were subcloned into the multicloning site of pcDNA3.1 (zeo); expressed in transfected cells
T4 sequence (P19099 25-503): T1 sequence (P19099 25-503)
Description: as §1, §2
as §3, with “For determination of IC50 values, the inhibitors were added to the culture medium at concentrations between 0.6 nM and 60 μM and incubated for 48 h.” left out

| SMILES | IC50 |
| --- | --- |
| COC(=O)c1cncn1[C@H](C)c1ccc(I)cc1 [iodometomidate (IMTO), 4-Iodometomidate, reference compound] | 2 ± 2.3 nM |
| CCCN(CC)C(=O)c1cncn1[C@H](C)c1ccc(I)cc1 [2n] | 390 ± 170 nM |
| CCCN(C)C(=O)c1cncn1[C@H](C)c1ccc(I)cc1 [2l] | 3.5 ± 7.5 nM |
| CCN(CC)C(=O)c1cncn1[C@H](C)c1ccc(I)cc1 [2b] | 10.9 ± 2.02 nM |
| CCN(C)C(=O)c1cncn1[C@H](C)c1ccc(I)cc1 [2a, (R)-1-[1-(4-Iodophenyl)ethyl]-1H-imidazole-5-carboxylic acid ethylmethylamide] | 4.2 ± 0.37 nM |
| C[C@H](c1ccc(I)cc1)n1cncc1C(N)=O [2j] | 1410 ± 2070 nM |
| C[C@H](c1ccc(I)cc1)n1cncc1C(=O)NCCO [2k] | 221 ± 168 nM |
| CC(C)N(C)C(=O)c1cncn1[C@H](C)c1ccc(I)cc1 [2m] | 147 ± 61.9 nM |
| C[C@H](c1ccc(I)cc1)n1cncc1C(=O)N(C)C [2i] | 15.7 nM |
| C[C@H](c1ccc(I)cc1)n1cncc1C(=O)N1CCC1 [2e, (R)-1-[1-(4-Iodophenyl)ethyl]-1H-imidazole-5-carboxylic acid azetidinylamide] | 1.22 ± 0.08 nM |

same assay, conditions: Y1-Cyp11B2 cells, 1 μM DOC, 48 h incubation; read-out: IC50 aldosterone synthase

| SMILES | IC50 |
| --- | --- |
| C[C@H](c1ccc(I)cc1)n1cncc1C(=O)N1CCCCC1 [2g] | 5.5 ± 2.2 nM |
| Cc1nnc(-c2cncn2[C@H](C)c2ccc(I)cc2)o1 [6a] | 90.1 nM |
| C[C@H](c1ccc(I)cc1)n1cncc1C(=O)N1CCOCC1 [2h] | 182 nM |

system: adrenal glands; test: Uptake in adrenal glands in mice, ex vivo gamma counting; conditions: male CD-1 mice, i.v. 1 μCi (37 kBq), 15, 30, 120 and 240 min; 2a especially after 120 and 240 minutes, 2e at any time point
Procedure: The uptake of IMTO, (R)-1-[1-(4-iodophenyl)ethyl]-1H-imidazole-5-carboxylic acid ethyl-methyl amide (compound 2a) and (R)-1-[1-(4-iodophenyl)ethyl]-1H-imidazole-5-carboxylic acid azetidinylamide (compound 2e) in adrenal glands in mice in ex vivo experiments has been examined as follows. Male CD-1 mice were injected i.v. with 1 μCi (37 kBq) IMTO, (R)-1-[1-(4-[^125I]iodophenyl)ethyl]-1H-imidazole-5-carboxylic acid ethyl-methyl amide or (R)-1-[1-(4-iodophenyl)ethyl]-1H-imidazole-5-carboxylic acid azetidinylamide (compound 2e). At predefined time points (15 min, 30 min, 120 min, and 240 min) mice were killed (n≧6 per time point) and adrenals were excised and weighed. Radioactivity was measured using a gamma-counter.

| SMILES | uptake in adrenal glands compared to IMTO |
| --- | --- |
| CCN(C)C(=O)c1cncn1[C@H](C)c1ccc(I)cc1 [2a, (R)-1-[1-(4-Iodophenyl)ethyl]-1H-imidazole-5-carboxylic acid ethylmethylamide] | increased |
| C[C@H](c1ccc(I)cc1)n1cncc1C(=O)N1CCC1 [2e, (R)-1-[1-(4-Iodophenyl)ethyl]-1H-imidazole-5-carboxylic acid azetidinylamide] | greatly increased |

same assay, conditions: male CD-1 mice, i.v., after 240 minutes

| SMILES | factor of increase of adrenal uptake compared to IMTO |
| --- | --- |
| C[C@H](c1ccc(I)cc1)n1cncc1C(=O)N1CCC1 [2e, (R)-1-[1-(4-Iodophenyl)ethyl]-1H-imidazole-5-carboxylic acid azetidinylamide] | about 10 |

system: not listed separately; test: Metabolization of IMTO in the blood of patients; conditions: iodometomidate acid identified after few minutes as product of enzymatic hydrolysis

| SMILES | biological half-life in the blood of patients |
| --- | --- |
| COC(=O)c1cncn1[C@H](C)c1ccc(I)cc1 [iodometomidate (IMTO), 4-Iodometomidate, reference compound] | very limited |
